Test results published in ChEMBL document CHEMBL4033610, “Analogues of the Potent Antitumor Compound Leiodermatolide from a Deep-Water Sponge of the Genus Leiodermatium” (J Nat Prod, 2017).

Test system: ASPC1
Assay: Cytotoxicity against human Aspc-1 cells incubated for 72 hrs by MTT assay
Assay type: functional, cell-based
Settings: ASPC1, 72 h

**Q.** With `CC[C@@H]1OC(=O)C[C@@](O)(C/C=C/C=C(\C)[C@H]2OC(=O)CC/C=C(\C)[C@@H](C)[C@H](O)[C@H](C)[C@@H](OC(N)=O)/C=C\C=C/[C@@H]2C)[C@H]1C` as the molecule, how does the IC50 read?
**A.** 46 nM

**Q.** With `C=C1[C@@H](C)[C@H](O)[C@H](C)[C@@H](OC(N)=O)/C=C\C=C/[C@H](C)[C@@H](/C(C)=C/C=C/C[C@]2(O)CC(=O)O[C@@H](CC)[C@@H]2C)OC(=O)CC[C@H]1OO` as the molecule, how does the IC50 read?
**A.** 3700 nM

**Q.** For `CC[C@@H]1OC(=O)C[C@@H](C/C=C/C=C(\C)[C@H]2OC(=O)CC/C=C(\C)[C@@H](C)[C@H](O)[C@H](C)[C@@H](OC(N)=O)/C=C\C=C/[C@@H]2C)[C@H]1C`, which IC50 is on record?
**A.** 43 nM
